Ki and Tm data for 6 compounds are collected here from doi:10.1101/2024.10.18.618978v3 (biorxiv, 2026).

Test [1] deals with T1, SpeG (Staphylococcus aureus, UniProt A0A0H2XGJ0).
T1 sequence (A0A0H2XGJ0 1-165): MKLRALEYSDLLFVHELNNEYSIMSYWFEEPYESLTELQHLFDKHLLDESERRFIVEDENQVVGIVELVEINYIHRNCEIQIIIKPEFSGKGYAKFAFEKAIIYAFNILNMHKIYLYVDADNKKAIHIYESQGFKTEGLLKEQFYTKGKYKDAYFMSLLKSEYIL
The experiment in a line: colorimetric DTNB SSAT assay. In kind it is biochemical.

The target in test [2] is SAT1 (Homo sapiens, UniProt P21673). The experiment in a line: colorimetric DTNB SSAT assay. In kind it is biochemical.
SAT1, sequence (P21673 whole entry): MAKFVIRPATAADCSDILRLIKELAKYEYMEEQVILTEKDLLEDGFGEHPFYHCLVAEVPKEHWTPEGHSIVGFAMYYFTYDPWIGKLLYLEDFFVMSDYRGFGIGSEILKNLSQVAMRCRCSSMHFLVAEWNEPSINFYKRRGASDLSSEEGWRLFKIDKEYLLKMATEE
The target of test [3] is T1, SpeG. The experiment in a line: thermal shift assay. To be noted: 1.6 μM SpeG, 3-fold dilution series of compound; Tm decreased. Type of test: binding.

Turning to `CCCCCCCCNCCN` [OES2-0085], the Ki in test [1] turned out to be 1.27 ± 0.263 mM.

`CCCCCCCCNCCCN` [OES2-0045]: the affinity in test [2], expressed as Ki, was 228 ± 49.7 µM.

Regarding `CCCCCCCCCCCCNCCCN` [OES2-0017], in test [3], the Tm result is recorded as “OES2-0017 titration decreased SpeG Tm”.

On to `CCCCCCCCCCN` [OES2-0077], for which the inhibition constant (Ki) in test [1] worked out at 0.853 ± 0.238 mM; in test [2] it was 743 ± 250 µM.

Consider `CCCCCCCCCCNCCN` [OES2-0086], for which the Ki in test [1] was determined as 1.2 ± 0.425 mM.

On to `CCCCCCCCCCCCN` [OES2-0052], for which the Ki in test [1] stood at 0.16 ± 0.0383 mM; in test [2] it was 160 ± 50.4 µM.
